Here are results for six compounds from the supplement of paper PMC11061612.

Holding throughout (test): combination Emax (second highest fraction inhibited in the dose matrix, 72 h); higher = more inhibition; extreme values may be limits of the assay
Assay [1] concerns PC-3 (Prostate Carcinoma). The method in brief:
(§1)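 Bliss excess equals the observed combination effect minus the expected value EA + EB − EA·EB, where EA and EB are the effects of each agent alone. Combination Emax is the second-highest inhibition within the matrix. Inhibition was scaled from CellTiter-Glo 2.0 luminescence, with 0 set by vehicle wells and 1 by blank wells, after 72 hours of two-drug dosing of cells plated in 1536-well plates.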

Assay [2] relates to DAN-G (Pancreatic Carcinoma). The method in brief:
as §1

Assay [3] has as its system COR-L279 (Small Cell Lung Carcinoma). The method in brief: as §1
Assay [4] deals with NCI-H661 (Non-Small Cell Lung Carcinoma). The method in brief: as §1
Assay [5] deals with MOLM-13 (Acute Myeloid Leukemia). The method in brief: as §1
For assay [6], the system named is H9 (T-Cell Non-Hodgkin's Lymphoma). The method in brief:
as §1

Assay [7] deals with SUP-B15 (B-Lymphoblastic Leukemia). The method in brief: as §1
Assay [8] deals with IM-95 (Gastric Carcinoma). The method in brief:
as §1

Assay [9] concerns HCC1187 (Breast Carcinoma). The method in brief:
as §1

Assay [10] has as its system NCI-H526 (Small Cell Lung Carcinoma). The method in brief: as §1
The subject of assay [11] is ESO51 (Esophageal Adenocarcinoma). The method in brief: as §1
Assay [12] deals with RPMI-8226 (Plasma Cell Myeloma). The method in brief:
as §1

A further assay concerns NCI-H2731 (Mesothelioma). The method in brief:
as §1

The test system of assay [13] is VMRC-RCZ (Kidney Carcinoma). The method in brief: as §1
Assay [14] relates to SK-GT-2 (Gastric Carcinoma). The method in brief:
as §1

The subject of assay [15] is KY821 (Acute Myeloid Leukemia). The method in brief:
as §1

Assay [16] has as its system MN-60 (B-Lymphoblastic Leukemia). The method in brief:
as §1

For assay [17], the system named is DMS-114 (Small Cell Lung Carcinoma). The method in brief: as §1
Assay [18] deals with SNU-398 (Hepatocellular Carcinoma). The method in brief:
as §1

The test system of assay [19] is KP-3 (Pancreatic Carcinoma). The method in brief:
as §1

Take `Cc1cc2ncnn2cc1Nc1ncc2c(n1)n(C1CCOCC1)c(=O)n2C` [AZD7648] + C=CCn1c(=O)c2cnc(Nc3ccc(N4CCN(C)CC4)cc3)nc2n1-c1cccc(C(C)(C)O)n1 [AZD1775] (first compound max 10 µM, partner max 1 µM): the “combination Emax” value in [1] came to 0.263; in assay [2], 0.631; in [3], 0.484; in assay [4], 0.649; in assay [5], 1; in [6], 0.969. Also, the “combination Emax” value is 0.553 in [7]; 0.501 in assay [8]; 0.304 in assay [9]; 0.721 in assay [10]; 0.576 in assay [11]; 0.348 in [12]. For the same compound, the “combination Emax” value is 0.416 in the assay on NCI-H2731 (Mesothelioma); 0.393 in assay [13]; 0.74 in assay [14]; 0.994 in assay [15]; 0.124 in assay [16]; 0.385 in [17]. Further, the “combination Emax” value was found to be 0.533 in assay [18] and 0.282 in [19].
`Cc1cc2ncnn2cc1Nc1ncc2c(n1)n(C1CCOCC1)c(=O)n2C` [AZD7648] + CCN(CCO)CCCOc1ccc2c(Nc3cc(CC(=O)Nc4cccc(F)c4)[nH]n3)ncnc2c1 [AZD2811] (first compound max 10 µM, 7x7, partner max 1 µM): the “combination Emax” value in assay [1] was 0.243; in [2] it was 0.554; in assay [3] it was 0.757; in assay [4], 0.308; in [5] it was 1; in assay [6] it was 0.722. The “combination Emax” value in [7] stood at 0.875; in assay [8], 0.424; in [9], 0.824; in [10], 0.356; in assay [11], 0.227; in assay [12], 0.392. Also, the “combination Emax” value in the assay with NCI-H2731 (Mesothelioma) came to 0.409; in assay [13], 0.276; in assay [14] it was 0.198; in [15], 0.495; in assay [16], 0.185; in assay [17] it was 0.306. Moreover, the “combination Emax” value in assay [18] was found to be 0.363; in assay [19], 0.237.
Consider `Cc1cc2ncnn2cc1Nc1ncc2c(n1)n(C1CCOCC1)c(=O)n2C` [AZD7648] + CN(C)CCCOc1ccc(-c2ccc3ncc4c(c3c2)n(C2CCOCC2)c(=O)n4C)cn1 [AZD0156] (first compound max 10 µM, 7x7, partner max 1 µM), for which the “combination Emax” value in [1] was 0.257; in assay [2], 0.597; in assay [3], 0.4; in [4], 0.237; in [5] it was 0.523; in assay [6], 0.331. For the same compound, the “combination Emax” value stood at 0.174 in assay [7]; 0.303 in assay [8]; 0.104 in assay [9]; 0.15 in assay [10]; 0.192 in [11]; 0.248 in [12]. Also, the “combination Emax” value in the assay on NCI-H2731 (Mesothelioma) stood at 0.274; in assay [13], 0.256; in assay [14], 0.159; in [15] it was 0.417; in assay [16] it was 0.201; in [17] it was 0.293. For the same compound, the results for the “combination Emax” value in assay [18] and in assay [19] were 0.194 and 0.159, respectively.
On to `Cc1cc2ncnn2cc1Nc1ncc2c(n1)n(C1CCOCC1)c(=O)n2C` [AZD7648] + C[C@@H]1COCCN1C2=NC(=NC(=C2)C3(CC3)[S@](=N)(=O)C)C4=C5C=CNC5=NC=C4 [AZD6738] (first compound max 10 µM, 7x7, partner max 10 µM), for which the “combination Emax” value was 0.402 in [1]; 0.643 in assay [2]; 0.677 in assay [3]; 0.56 in assay [4]; 0.998 in assay [5]; 0.964 in assay [6]. In addition, the “combination Emax” value in assay [7] came to 0.848; in assay [8] it was 0.317; in [9], 0.278; in assay [10], 0.637; in assay [11], 0.744; in assay [12], 0.855. The “combination Emax” value in the assay on NCI-H2731 (Mesothelioma) was found to be 0.381; in assay [13], 0.388; in assay [14] it was 0.216; in assay [15], 0.92; in [16], 0.427; in assay [17], 0.54. For the same compound, the results for the “combination Emax” value in [18] and in assay [19] were 0.46 and 0.296, respectively.
In the case of `Cc1cc2ncnn2cc1Nc1ncc2c(n1)n(C1CCOCC1)c(=O)n2C` [AZD7648] + O=C(c1cc(Cc2n[nH]c(=O)c3ccccc23)ccc1F)N1CCN(C(=O)C2CC2)CC1 [Olaparib] (first compound max 10 µM, 7x7, partner max 10 µM), the “combination Emax” value in assay [1] came out at 0.265; in [2], 0.531; in assay [3], 0.858; in [4] it was 0.215; in [5], 0.43; in assay [6], 0.22. The “combination Emax” value in assay [7] amounted to 0.917; in assay [8], 0.204; in [9], 0.294; in assay [10] it was 0.473; in assay [11], 0.224; in assay [12], 0.464. The “combination Emax” value turned out to be 0.14 in the assay with NCI-H2731 (Mesothelioma); 0.129 in assay [13]; 0.0892 in [14]; 0.355 in assay [15]; 0.175 in assay [16]; 0.236 in [17]. In addition, the “combination Emax” value was 0.134 in assay [18] and 0.0579 in assay [19].
As to `NC1(C(=O)N[C@@H](CCO)c2ccc(Cl)cc2)CCN(c2ncnc3[nH]ccc23)CC1` [Capivasertib] + CC(=O)c1c(C)c2cnc(Nc3ccc(N4CCNCC4)cn3)nc2n(C2CCCC2)c1=O [Palbociclib] (first compound max 10 µM, 7x7, partner max 10 µM), the “combination Emax” value in assay [1] is 0.376; in assay [2], 0.355; in assay [3] it was 0.688; in assay [4], 0.368; in assay [5], 0.98; in [6] it was 0.985. Also, the “combination Emax” value came out at 0.94 in assay [7]; 0.423 in assay [8]; 0.257 in assay [9]; 0.15 in [10]; 0.356 in [11]; 0.483 in assay [12]. Moreover, the “combination Emax” value in the assay with NCI-H2731 (Mesothelioma) turned out to be 0.361; in assay [13], 0.401; in [14], 0.248; in [15] it was 0.757; in assay [16], 0.583; in assay [17] it was 0.284. Also, the “combination Emax” value is 0.472 in [18] and 0.25 in [19].
